Measurements: article PMC9114170, “Investigation of the Role of Hydrophobic Amino Acids on the Structure-Activity Relationship in the Antimicrobial Venom Peptide Ponericin L1” (The Journal of membrane biology, 2021)
Ends that are not written are not given here.

Assays:
[1] = Acrylamide quenching of Trp fluorescence in absence and presence of lipid vesicles; assay type: physicochemical; conditions: 2 μM peptide in PBS pH 7.0, λex 295 nm, λem 340, average of three replicates ± SD; for Acrylamide quenching Ksv, PCPG: 3:1 DOPC:DOPG vesicles; for Acrylamide quenching Ksv, PCPG / Acrylamide quenching Ksv, PEPG / Acrylamide quenching Ksv, PC / Acrylamide quenching Ksv, PC/Chol: 250 μM lipid; for Acrylamide quenching Ksv, PEPG: 3:1 POPE:DOPG vesicles; for Acrylamide quenching Ksv, PC: DOPC vesicles; for Acrylamide quenching Ksv, PC/Chol: DOPC:Cholesterol vesicles; for Acrylamide quenching Ksv, PBS: no lipid vesicles
Method: To form small unilamellar vesicles (SUVs) sonication or ethanol dilution methods were implemented ([Caputo & London, 2019]). In all cases, lipid vesicle preparation was the same. Depending on the lipid composition, appropriate volumes of lipids in chloroform were mixed in a glass tube and then allowed to dry under N2 gas for 15 minutes. The lipid films were then placed in a vacuum desiccator and allowed to dry further under a vacuum for 1 hour. For vesicles formed through ethanol dilution methods, 10 μL of pure ethanol was added to the film, and then vortex until the dissipation of the film. While continuing to vortex, the appropriate amount of PBS was added. For vesicles formed using the method of sonication, PBS was added directly to the tube while being vortexed to create multilamellar vesicles (MLVs). The MLV suspension was covered with parafilm and then placed in a high-powered bath sonicator (Avanti Lipids) and subjected to sonication for 20 minutes to create SUVs.
Acrylamide quenching was monitored by titration of samples with 10 μL aliquots of 4M acrylamide titrated into peptide samples prepared as described above. These samples contained either or [0.25] mM total lipid. After each addition of acrylamide, Trp fluorescence intensity was measured using λex = 295 nm and λem = 340. Corrections to the emission intensity were made for background subtraction, dilutions, and inner filter effects in the excitation path as described previously. The same method to calculate Ksv was used as above.
In order to gain more insight into the bilayer interactions, fluorescence quenching approaches were utilized. The peptides were exposed to the aqueous quencher acrylamide in solution or when bound to vesicles. […] Thus, peptide Trp exposure to the aqueous milieu can be gauged by the extent of quenching by acrylamide. Stern-Volmer quenching plots were created to analyze the data and Ksv (slopes of a linear fit to the data) are shown in Figure 4 and Table 2. […] In the case of L1L and L1I, there was a significant reduction in quenching between the solution (free) state of the peptide and when bound to anionic vesicles, but a much smaller reduction if any when interacting with zwitterionic vesicles. This is consistent with a more deeply buried Trp in anionic bilayers.

[2] = test system: Gram-positive and Gram-negative strains; assay: Antimicrobial activity over the MIC panel; assay type: cell-based; conditions: highest concentration tested 15μM
Method: Six different strains of bacteria were streaked on LB-Miller agar plates from a frozen glycerol stock derived from the original samples shipped from CGSC (Coli Genetic Stock Center, Yale University) or ATCC (American Type Culture Collection) (Escherichia coli D31 CGSC 5165 ([Burman, Nordstrom & Boman, 1968]), Staphylococcus aureus ATCC 35556. Pseudomonas aeruginosa PA-01 ATCC 47085, Acinetobacter baumannii ATCC 19606). For each of the strains a liquid overnight culture was prepared using a single colony into fresh LB broth and placed in a shaking incubator for ~ 18 hours at 37 C at 225 rpm. After the incubation period, a 1:200 dilution was made in fresh LB broth and then used for experimentation. Minimal Inhibitory Concentration (MIC) determinations were performed using mid-log phase bacteria diluted to 5 x 10^5 CFU/mL. Next, 90 μL of this diluted culture was then pipetted into a sterile 96-well plate that contains serially diluted aliquots of the peptide variants to consist of a total volume of 100 μL. This plate was then incubated for 18 hours at 37 C. Bacterial growth was determined by taking an OD600 measurement using a Spectramax M5 multimode plate reader post incubation. Minimal Bactericidal Concentration (MBC) was performed by taking 1 μL of the culture from the MIC plate and then pipetting it on to a fresh LB agar plate. After plating this culture, the plate was then incubated overnight at 37 C. MBC was determined by the growth or the lack of growth from each well on the agar plate.
The ability of L1 and the hydrophobic variants to act as antimicrobials was investigated using the Minimal Inhibitory Concentration (MIC) and Minimal Bactericidal Concentration (MBC) assays as previously described ([Wiegand, Hilpert & Hancock, 2008]). The MIC is determined as the lowest concentration of peptide required to inhibit bacterial growth in solution, while the MBC is the lowest concentration required to act in a bactericidal mechanism (as opposed to bacteriostatic) and is determined by plating MIC cultures on antimicrobial-free media. Peptides were screened against E. coli, S. aureus, A. baumannii, P. aeruginosa, B. subtilis, and K. pneumoniae.

[3] = Trichloroethanol (TCE) quenching of Trp fluorescence, solution aggregation assay; assay type: physicochemical; conditions: 2 μM peptide in PBS pH 7.0, titration with 10M TCE, λex 280 nm, λem 340, average of three replicates
Method: Trichloroethanol (TCE) quenching was monitored by titration of samples with 10 μL aliquots of 10M TCE (Alfa Aesar, Haverhill, Massachusetts) into peptide samples prepared as described above. After each addition of TCE, Trp fluorescence intensity was measured using λex = 280 nm and λem = 340. Corrections to the emission intensity were made for background subtraction and dilutions. The slope of the linear best fit equation to the data (eqn 2) was used as the Stern-Volmer quenching constant (Ksv) (2) F0/F=1+Ksv[Q] where F0 is the fluorescence intensity in the absence of quencher, and F is the fluorescence intensity in the presence of a given concentration of quencher [Q].
The environment of the L1 Trp residue was further probed using fluorescence quenching by trichloroethanol (TCE) which selectively exerts quenching on Trp residues which are shielded from the aqueous milieu, such as at the interior of a peptide aggregate. The results are shown in Figure 2B, with the Ksv values for the quenching shown in Supplemental Table 1. […] However, considering the reduced overall hydrophobicity of this peptide and thus higher aqueous solubility, decreased TCE quenching is not surprising.

[4] = test system: E. coli D31 outer membrane; assay: E. coli outer membrane permeabilization (nitrocefin / β-lactamase); assay type: cell-based, Escherichia coli; conditions: E. coli D31, nitrocefin hydrolysis, absorbance 486 nm, up to 90 minutes; peptide serially diluted from 15 μM; average of three replicates
Method: A single colony of E.coli D31 was taken from an LB agar plate and inoculated into fresh LB broth with 100 μg/mL ampicillin (LB-Amp), then place in a shaking incubator at 37 C (225 rpm) for ~ 18 hours. After the incubation period 100 μL was taken from the culture and diluted with 25 mL of fresh LB-Amp. The dilution was further incubated in the same conditions until an OD600 of 0.2 to 0.4 was obtained. Once the specified OD600 was reached the culture was then centrifuged at 2500 rpm for 15 minutes in a tabletop clinical centrifuge. The supernatant was discarded and then an equal amount of PBS (100 mM NaH2PO4, 200 mM NaCl, pH7) was used to resuspend the pellet.
Experimental samples were prepared in a 96-well plate in the order as follows: 10 μL of the six peptide variants that were serially diluted starting a concentration of 15 μM with the exception of the last row (used as a negative control 10 μL of 0.01% acetic acid). 80 μL of the resuspended bacteria culture, and 10 μL of 50 μg/mL nitrocefin in PBS. The absorbance was recorded at 486 nm in 5-minute intervals for a total run time of 90 minutes immediately following the addition of nitrocefin. The antimicrobial agent polymyxin B was used as a positive control. The values presented are the average of three replicates.
As the mechanism of action of the L1 venom peptide is likely a membrane disruptive mechanism, the effect of the hydrophobic substitutions on membrane permeabilization was investigated using E.coli and ovine red blood cells (RBCs). The permeabilization of the E. coli outer membrane was assayed using an enzyme-substrate pair in which the enzyme (β-lactamase) is located in the periplasmic space while the substrate (the chromogenic nitrocefin) is added to the exterior of cells. […] Similarly, the permeabilization of the E. coli inner membrane was assessed using a cytoplasmic enzyme, β-galactosidase, and a chromogenic substrate, ONPG. […]

[5] = test system: Sheep red blood cells (RBCs); conditions: earlier work of the group; ref Senetra, Necelis & Caputo, 2020b; cited from earlier work
Source text: The ponerine ant, Neoponera goeldii (previously classified as Pachycondyla goeldii), produces a mixture of venom peptides known as ponericins ([Orivel et al., 2001]). These peptides have been subdivided into three sub-classes based on the amino acid sequences (L, W, and G) and contain a total of 15 independent peptide sequences. […] Among these peptides, the L1 sequence was the most poorly characterized.

[6] = Red edge excitation shift (REES) solution aggregation assay; assay type: physicochemical; conditions: 2 μM peptide in PBS pH 7.0, λex 280 to 307 nm, emission 310 to 410 nm, Trp fluorescence, average of three replicates
Source text: All fluorescence spectroscopy experiments were preformed using a JY-Horiba Fluoromax4 instrument. Excitation and emission slit widths were kept consistent at 2.5 nm. Semi-micro quartz cuvettes were utilized for each experiment. The following formula was used to calculate a spectral barycenter for each experiment: (1) B=∑λ*i/∑i where B is the barycenter, λ is the wavelength, and i is the intensity at the specified wavelength. An entire emission spectrum from 300-400 was used the carry out the calculation of barycenter.
Red edge excitation shift (REES) experiments utilized excitation at 6 different wavelengths (λex = 280, 290, 295, 300, 305, and 307 nm) and the same emission range of 310 to 410 nm. Samples were similarly prepared as above. A blank only containing PBS buffer was used as background to correct the spectra after each addition.
Aggregation of peptides was assessed utilizing the intrinsic fluorescence properties of the Trp residue in the L1 sequence. […] Differences in the side chain motion/dynamics of the Trp residue and the local environment around the Trp can be observed by monitoring the red-edge excitation shifts (REES). […]

Sequence | Acrylamide quenching Ksv, PCPG [1] | Acrylamide quenching Ksv, PEPG [1] | Acrylamide quenching Ksv, PC [1] | Acrylamide quenching Ksv, PC/Chol [1] | Acrylamide quenching Ksv, PBS [1] | Antimicrobial activity (summary of MIC results) [2] | TCE quenching of Trp fluorescence (extent) [3] | Outer membrane permeabilization [4] | Hemolytic activity [5] | REES total shift [6]
AAKEAWTKMKGAGKAAAGKAKGAA [L1A] | 10.9 ± 0.26 M⁻¹ | 3.59 ± 0.58 M⁻¹ | 8.51 ± 0.46 M⁻¹ | 10.79 ± 0.27 M⁻¹ | 8.19 ± 0.90 M⁻¹ | no antimicrobial activity | markedly lower than the others | – | – | –
IIKEIWTKMKGAGKAIIGKIKGII [L1I] | 8.72 ± 2.09 M⁻¹ | 3.39 ± 2.25 M⁻¹ | 4.9 ± 1.51 M⁻¹ | 12.65 ± 0.63 M⁻¹ | 10.5 ± 0.67 M⁻¹ | broad spectrum activity | – | no membrane disruption above background | – | –
LLKELWTKMKGAGKAVLGKIKGLL [L1, ponericin L1] | – | – | – | – | – | – | – | – | very low level of hemolytic activity | –
VVKEVWTKMKGAGKAVVGKVKGVV [L1V] | 16.86 ± 6.47 M⁻¹ | 5.64 ± 0.38 M⁻¹ | 4.18 ± 0.15 M⁻¹ | 12.19 ± 1.54 M⁻¹ | 12.14 ± 1.59 M⁻¹ | no antimicrobial activity | showed the most quenching | – | – | ~ 10 nm
